Laboratory results taken from patent US7829297B2, “Treatment of cancers expressing p95 ErbB2” (GlaxoSmithKline LLC, priority 2003, dated 2010).

Legend:
[1] = tested on: p95^ErbB2; experiment: p95ErbB2 in BT474 tumor xenografts (Western blot); type: in vivo, mice
Source text: (§1) BT474 tumor xenografts were established in CD-1 nude mice.

[2] = tested on: BT474 cells; experiment: Proliferation of BT474 cells; type: cell-based, human
[3] = tested on: Erk1/2 and AKT; experiment: Activation of Erk1/2 and AKT by EGF and heregulin in BT474 cells; type: cell-based, human; conditions: 1 μM
[4] = biological target: T1, p185^ErbB2 (Homo sapiens, UniProt P04626); experiment: Western blot of phospho-p185ErbB2 in S1 cells; conditions: 5 μM, 24 hours
T1 sequence (P04626 23-1255): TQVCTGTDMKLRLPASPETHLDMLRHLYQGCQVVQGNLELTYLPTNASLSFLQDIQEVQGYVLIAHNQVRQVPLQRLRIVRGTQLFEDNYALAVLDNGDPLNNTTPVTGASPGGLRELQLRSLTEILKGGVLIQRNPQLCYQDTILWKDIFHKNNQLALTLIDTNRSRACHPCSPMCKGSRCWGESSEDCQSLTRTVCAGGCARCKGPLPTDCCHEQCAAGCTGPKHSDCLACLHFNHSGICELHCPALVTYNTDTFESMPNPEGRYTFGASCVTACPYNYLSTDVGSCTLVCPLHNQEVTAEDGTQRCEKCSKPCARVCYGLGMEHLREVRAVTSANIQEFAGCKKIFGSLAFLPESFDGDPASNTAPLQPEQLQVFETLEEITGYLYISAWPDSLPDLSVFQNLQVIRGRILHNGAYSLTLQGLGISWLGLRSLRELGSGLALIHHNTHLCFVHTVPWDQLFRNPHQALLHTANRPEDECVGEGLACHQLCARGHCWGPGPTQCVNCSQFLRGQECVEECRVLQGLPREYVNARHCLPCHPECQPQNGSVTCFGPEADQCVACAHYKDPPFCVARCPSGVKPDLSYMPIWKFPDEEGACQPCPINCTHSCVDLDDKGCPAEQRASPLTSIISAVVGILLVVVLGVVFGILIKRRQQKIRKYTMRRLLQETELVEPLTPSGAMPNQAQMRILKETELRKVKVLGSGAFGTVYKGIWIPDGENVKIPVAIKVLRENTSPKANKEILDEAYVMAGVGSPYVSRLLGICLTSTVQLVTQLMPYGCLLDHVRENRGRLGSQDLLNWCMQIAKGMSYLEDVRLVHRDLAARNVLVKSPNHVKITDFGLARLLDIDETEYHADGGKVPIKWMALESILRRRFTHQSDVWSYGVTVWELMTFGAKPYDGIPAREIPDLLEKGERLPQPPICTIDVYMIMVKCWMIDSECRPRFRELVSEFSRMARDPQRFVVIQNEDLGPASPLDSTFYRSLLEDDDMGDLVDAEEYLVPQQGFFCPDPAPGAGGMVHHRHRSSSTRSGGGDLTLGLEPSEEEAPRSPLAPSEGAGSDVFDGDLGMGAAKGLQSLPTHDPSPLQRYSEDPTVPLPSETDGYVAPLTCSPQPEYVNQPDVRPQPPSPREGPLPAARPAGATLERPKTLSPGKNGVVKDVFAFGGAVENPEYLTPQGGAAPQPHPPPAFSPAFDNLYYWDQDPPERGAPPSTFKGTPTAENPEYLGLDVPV

[5] = tested on: MAPK-Erk1/2 and PI3K-AKT pathways, cyclin D1/2; experiment: Downstream signaling in BT474 tumor xenografts (Western blot); type: in vivo, mice
Description: Equal amounts of protein from tumor xenograft whole cell extracts were separated by SDS-PAGE and steady state protein levels of total and phosphorylated forms Erk1/2 and AKT were assessed by Western blot. Cyclin D1/2 steady state protein levels were also determined.

[6] = tested on: ErbB3; experiment: ErbB3 phosphorylation in BT474 tumor xenografts (IP Western blot); conditions: 100 mg/kg/dose, compared with vehicle
Description: Tumors were removed 4 hours after the last dose, frozen in liquid Nitrogen, and stored at −80° C. until analysis. For the terminal biopsy, mice were euthanized with CO2 inhalation. Cell extracts were prepared by homogenization in RIPA buffer at 4° C.
As shown in FIG. 6a-6c, the activation-state of EGFR, p185^ErbB2, p95^ErbB2, and ErbB3 was assessed by IP Western blot.

[7] = biological target: T1, p185^ErbB2; experiment: Western blot of p185ErbB2 in BT474 cells; type: cell-based; set-up: The full-length ErbB2 receptor (p185^ErbB2); endogenous in cells; host or cells: BT474
Description: (§2) Equal amounts of protein were separated by SDS-PAGE and then ErbB2, p95^ErbB2, pTyr/p95^ErbB2, and pTyr/ErbB2 steady state protein levels were assessed by Western blot. […] Along the left side of the lanes, the uppermost arrow indicates p185; lower arrowhead indicates p95. Molecular weights are indicated on the right side of the figure.

[8] = biological target: T1, p185^ErbB2; experiment: Western blot of phospho-p185ErbB2 in Hb4a cells; conditions: parental Hb4a cells, 5 μM, 24 hours
[9] = tested on: solid tumor overexpressing or expressing activated EGFR or ErbB2; experiment: Open label, multi-dose clinical trial in subjects with cancer; type: in vivo, human
[10] = tested on: p95; experiment: Western blot of phospho-p95 in S1 cells; conditions: 5 μM, 24 hours
[11] = biological target: T1, p185^ErbB2; experiment: p185ErbB2 in BT474 tumor xenografts (Western blot); type: in vivo, mice; set-up: The full-length ErbB2 receptor (p185^ErbB2); from tissue; host or cells: BT474 tumour xenografts in mice; conditions: GW572016 100 mg/kg/dose PO or trastuzumab IP
Source text: as §1

[12] = tested on: p95^ErbB2; experiment: Western blot of p95ErbB2 in BT474 cells; type: cell-based, human
Description: as §2

[13] = GW572016 or trastuzumab (10 mg/kg)
[14] = 24 hours, 0.5 μM GW572016 or 10 μg/ml trastuzumab
[15] = 11 breast cancer subjects previously treated with trastuzumab

## CS(=O)(=O)CCNCc1ccc(-c2ccc3ncnc(Nc4ccc(OCc5cccc(F)c5)c(Cl)c4)c3c2)o1 [GW572016, N-{3-Chloro-4-[(3-fluorobenzyl)oxy]phenyl}-6-[5-({[2-(methylsulfonyl)ethyl]amino}methyl)-2-furyl]-4-quinazolinamine]
[1]; GW572016 100 mg/kg/dose PO or trastuzumab IP
  steady state protein levels of total p95ErbB2: unchanged
[1]; GW572016 100 mg/kg/dose PO, 100 mg/kg
  phospho-p95ErbB2 steady state protein levels: markedly inhibited
[1]; GW572016 100 mg/kg/dose or trastuzumab
  Y1248 phosphorylation in p95ErbB2: inhibited
[2]
  proliferation of BT474 cells: inhibited
[2]; BT474 cells
  reversal of antiproliferative effect in the presence of EGF: not completely reversed
[2]; BT474 cells, 1 μM, prolonged incubation (data not shown)
  effect of prolonged incubation on protection by heregulin: abrogated the protective effects of heregulin
[2]; BT474 cells, 72 hour assay
  reversal of inhibitory effects by addition of heregulin: partially reversed
[3]; EGF 50 ng/ml 15 minutes
  EGF-induced increase of p-Erk1/2 steady state protein levels: blocked
[3]; HRG
  HRG-induced AKT phosphorylation: partially inhibited
[4]
  p185ErbB2 phosphorylation: inhibited
[5]
  total steady state protein levels of Erk1/2 and AKT: without affecting
[5]; [13]
  cyclin D steady state protein levels: inhibited
  p-AKT steady state protein levels: inhibited
  p-Erk1/2 steady state protein levels: inhibited
[6]
  ErbB3 tyrosine phosphorylation: markedly inhibited
[7]; 1 μM, 16 hours, ErbB2 IP
  phosphorylation of p185ErbB2 in presence and absence of HRG and EGF: inhibited
[7]; 1 μM, 24 hours
  p185ErbB2 phosphorylation (anti-pTyr Western blot): inhibited
[7]; [14]
  steady-state p185ErbB2 protein levels (anti-ErbB2 ECD mAb): did not vary
  tyrosine phosphorylation of p185ErbB2 (anti-pTyr mAb): inhibited
[8]
  phosphorylation of p185ErbB2: inhibited
[9]; [15]
  Partial Responses among breast cancer subjects: three
  Stable Disease among breast cancer subjects: four
[9]; 11 breast cancer subjects, all previously treated with trastuzumab, oral ditosylate salt, daily
  breast cancer subjects exhibiting responses, of eleven: seven
[9]; Patient No. 361, 1200 mg/day
  response of bone metastases: did not respond
  time to disappearance of all subcutaneous nodules: ≤ 28 days
[9]; Patient No. 372, 1200 mg/day
  anterior abdominal wall nodules: improved
[9]; Patient No. 372, 1200 mg/day, August to October 2002
  decrease in two right breast masses: 70%
[9]; adenocarcinoma of unknown primary origin
  stable disease, number of subjects: 1
[9]; colorectal cancer
  stable disease, number of subjects: 2
[9]; granular cell cancer
  stable disease, number of subjects: 1
[9]; head and neck cancer
  stable disease, number of subjects: 1
[9]; initial 33 subjects with validated responses, all tumor types
  total responses out of 33 subjects: 15
[9]; lung cancer
  stable disease, number of subjects: 1
[9]; ovarian cancer
  stable disease, number of subjects: 2
[10]
  p95 phosphorylation: inhibited
[11]
  phospho-p185ErbB2 steady state protein levels: inhibited
  steady state protein levels of total p185ErbB2: unchanged
[12]; 1 μM, 16 hours, ErbB2 IP
  phosphorylation of p95ErbB2 in presence and absence of HRG and EGF: inhibited
[12]; 1 μM, 16 hours, HRG 5 nM 15 min, ErbB3 IP
  HRG-induced p95ErbB2 phosphorylation: partially blocked
[12]; [14]
  tyrosine phosphorylation of p95ErbB2 (anti-pTyr mAb): inhibited
